According to patent publication US11491147B2, “Combination drug therapy reduces PARP-1 related DNA repair and increases the efficacy of genotoxic agents” (Indiana University Research and Technology Corporation, priority 2016, dated 2022):

Legend:
MCF7 cells = test: Colony formation survival assay, MCF7 cells; format: cell-based, human; details: Homo sapiens; single agent, MCF7 cells, colony formation; read-out: IC50, cell survival
Experimental: FIG. 15. […] B. Combination index. Combination index (CI) was derived using the data shown in A and the formula: […]
For each potency ratio, combination index of three effective concentrations at IC30, IC50, and IC70 were calculated for synergistic effects using Prism 7.0.
Cells were then harvested and re-plated in 6-well plates at a density of 200 cells/well followed by IR treatment at different doses and colony formation assay or collection of cells for Western blot analysis. Concentration-response curves and IC50 values were calculated using Prism 7.0 (GraphPad, La Jolla, USA).

M/FASN cells = test: MTT survival assay, M/FASN cells; format: cell-based, human
Experimental: (§1) FIG. 5. PARP-1 mediates FASN-associated DNA repair and genotoxic treatment resistance. A-B, Effect of FASN on PARP-1 expression as determined by Western blot (A) and real-time RT-PCR (B) in stable FASN-over-expressing and -knockdown cells. C, Effect of FASN on IR-induced histone-H3 PARylation. Cells were pre-treated without or with 0.5 μM olaparib followed by treatment with or without IR and harvested at different times following IR for lysate preparation, immunoprecipitation of histone-H3 in the presence of 100 μM PARG inhibitor, gallotannin, and Western blot analyses of PARylated and total histone H3. D, Effect of PARP-1 knockdown on FASN-induced NHEJ up-regulation. FASN-over-expressing (P/FASN) and the control (P/Vec) cells were transiently transected with PARP-1 or scrambled control siRNA followed by Western blot analysis of PARP-1 (left panel) and NHEJ activity assay (right panel) (n=3, *p<0.05; **p<0.01). E, Effect of PARP-1 inhibition on survival. M/FASN cells were treated with 1 mM 3-ABA, 0.5 μM olaparib, or their vehicle control for 48 hours followed by MTT assay. F, Effect of PARP-1 inhibition on doxorubicin resistance. M/FASN cells were pre-treated for 6 hours by 1 mM 3-ABA, 0.5 μM olaparib, or transfected with control or PARP-1 siRNA followed by tested doxorubicin resistance using MTT survival assay. (n=3-4, *p<0.05, **p<0.01).
To determine if FASN enhancement of PARP-1 likely mediates FASN function in cellular resistance to DNA damages, a survival assay of […] cells following doxorubicin treatment in the absence or presence of PARP-1 inhibitors, 3-ABA (3-aminobenzamide) or olaparib was carried out. Now referring to FIG. 5E, either 1 mM 3-ABA or 0.5 μM olaparib alone had no effect on M/FASN cell survival.
MTT survival assay was performed as previously described (see e.g., Yang Y, Chen Q, & Zhang J T (2002) Structural and functional consequences of mutating cysteine residues in the amino terminus of human multidrug resistance-associated protein 1. J. Biol. Chem. 277(46):44268-44277). Briefly, cells in 96-well plate were cultured for 24 hours and treated with various concentrations of doxorubicin, bleomycin, cisplatin or H2O2 continuously for 3 days followed by addition of thiazolyl blue tetrazolium bromide (MTT) to a final concentration of 0.5 mg/mL and incubation at 37° C. for 4 hours. Medium was then removed and formazan was solubilized in dimethyl sulfoxide and the OD570 was measured by a Synergy H1 hybrid reader (BioTek, Winooski, Vt.). IC50's were obtained from the fitted curves generated by GraphPad Prism 5.0 program (GraphPad Software, Inc.). Relative resistance factor (RRF) is calculated using the formula RRF=IC50 (test)/IC50 (control) with control normalized as 1. […]

PARylated histone-H3 = test: IR-induced histone-H3 PARylation, immunoprecipitation and Western blot; format: cell-based, human; details: pre-treatment with 0.5 μM olaparib, 5 Gy IR, P/FASN and P/Vec cells
Experimental: as §1, with “*p<0.05, **p<0.01). […]” for “*p<0.05, **p<0.01).”

TE activity of FASN = biological target: T1, TE activity of FASN (Homo sapiens, UniProt P49327); test: TE activity assay using recombinant TE; format: biochemical
T1 construct: TE activity assay was performed also as previously described using recombinant TE (Fako et al., 2015)
T1 sequence (P49327 2207-2511 limits assumed): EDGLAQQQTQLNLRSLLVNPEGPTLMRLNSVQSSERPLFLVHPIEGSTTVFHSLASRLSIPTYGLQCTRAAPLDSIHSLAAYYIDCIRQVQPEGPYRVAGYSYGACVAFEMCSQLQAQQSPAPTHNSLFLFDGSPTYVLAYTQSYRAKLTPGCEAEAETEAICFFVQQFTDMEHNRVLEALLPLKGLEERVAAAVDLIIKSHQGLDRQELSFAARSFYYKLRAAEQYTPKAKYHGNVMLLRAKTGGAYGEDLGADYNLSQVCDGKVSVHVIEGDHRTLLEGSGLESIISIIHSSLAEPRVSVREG

SMILES | IC50 (MCF7 cells) [nM] | effect on M/FASN cell survival (M/FASN cells; 1 mM 3-ABA or 0.5 μM olaparib alone, 48 hours) | doxorubicin resistance level of M/FASN cells (M/FASN cells; pre-treated for 6 hours by 1 mM 3-ABA or 0.5 μM olaparib) | IR-induced PARylation of histone-H3 (PARylated histone-H3) | inhibition of TE (Ki), R- versus S-enantiomer (TE activity of FASN)
O=C(c1cc(Cc2n[nH]c(=O)c3ccccc23)ccc1F)N1CCN(C(=O)C2CC2)CC1 [olaparib] | 1000 | no effect | significantly reduced | inhibited IR-induced PARylation | 
Cc1c(OCC(F)(F)F)ccnc1C[S@@+]([O-])c1nc2ccccc2[nH]1 [R-lansoprazole] |  |  |  |  | significantly more effective than the S-lansoprazole
